In ChEMBL document CHEMBL4177694, “Discovery of the first low-shift positive allosteric modulators for the muscarinic M1 receptor” (Bioorg Med Chem Lett, 2017) one finds EC50, Emax and Activity data, which are given here for 62 compounds.

Assay [1] addresses T1, Muscarinic acetylcholine receptor M1 (Homo sapiens, UniProt P11229).
T1 sequence (P11229 whole entry): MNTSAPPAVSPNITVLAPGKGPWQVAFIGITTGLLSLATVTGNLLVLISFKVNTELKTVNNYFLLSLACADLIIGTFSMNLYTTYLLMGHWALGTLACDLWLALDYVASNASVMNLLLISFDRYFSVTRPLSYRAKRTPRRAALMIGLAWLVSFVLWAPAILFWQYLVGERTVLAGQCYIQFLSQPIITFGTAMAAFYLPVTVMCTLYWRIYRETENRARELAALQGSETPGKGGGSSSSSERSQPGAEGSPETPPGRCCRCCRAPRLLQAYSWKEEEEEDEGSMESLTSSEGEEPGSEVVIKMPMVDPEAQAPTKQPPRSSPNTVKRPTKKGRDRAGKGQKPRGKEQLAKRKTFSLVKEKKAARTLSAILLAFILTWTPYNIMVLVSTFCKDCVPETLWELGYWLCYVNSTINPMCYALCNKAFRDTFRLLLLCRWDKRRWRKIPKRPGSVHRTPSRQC
In words: (§1) Positive allosteric modulation of human wild type M1 receptor assessed as increase in acetylcholine-induced calcium flux by FLIPR assay. The class given is functional.

A short description of assay [2]: Displacement of [3H]-Ro 15-1788 from rat brain synaptosomal membranes GABA receptor after 90 mins.
For assay [3], the target named is T2, Muscarinic acetylcholine receptor M1 (Homo sapiens) (UniProt P11229).
T2 sequence (whole entry): T1 sequence (P11229 whole entry)
Description: Positive allosteric modulation of human wild type M1 receptor assessed as increase in acetylcholine-induced calcium flux by FLIPR assay relative to acetylcholine. The class given is functional. For orientation: A change in cytosolic calcium serves as a functional read-out for many receptors and channels.

The target in assay [4] is T2, Muscarinic acetylcholine receptor M1 (Homo sapiens). The assay is described as §1. The class given is functional.

pEC50: −log10 of the molar value. Activity calls are given as the source filed them. No cut-off for these calls is given here.

As to `CC(C)[C@@H]1N=C(c2ccccc2)c2cc(Cl)ccc2N(C)C1=S`, the pEC50 in assay [1] was under 5.00; in assay [2], 4.14.

Take `S=C1CN=C(c2ccccc2)c2cc(Br)ccc2N1`: the pEC50 in assay [1] was 6.02. In assay [3], the Emax was found to be 92%. `C[C@@H]1N=C(c2ccccc2)c2ccccc2NC1=S` had a pEC50 in assay [2] of 4.17.

`CCOC1N=C(c2ccccc2)c2cc(Cl)ccc2NC1=S` (racemic): the pEC50 in assay [1] is under 5.00.

On to `CSc1ccc2c(c1)C(c1ccccc1)=NCC(=S)N2`, for which, in assay [1], the pEC50 was 6.06. Moreover, the Emax in assay [3] is 71%. `S=C1COC(c2ccccc2)c2cc(Cl)ccc2N1` (stereo not drawn): in assay [1], the pEC50 is under 5.00. As for `CNC1=Nc2ccc(Cl)cc2C(c2ccccc2)=N[C@H]1C(C)C`, the outcome in assay [4] was inactive. `CCC[C@@]1(C)N=C(c2ccccc2)c2cc(Cl)ccc2NC1=S`: the pEC50 in assay [1] is under 5.00. Consider `S=C1CN=C(c2ccccc2)c2ccccc2N1`, for which the pEC50 in assay [1] was under 5.00. In the case of `CC(C)[C@@H]1N=C(C2CCCCC2)c2cc(Cl)ccc2NC1=S`, the pEC50 in assay [1] was 6.38. Moreover, the Emax in assay [3] came to 75%. For `Cc1ccc2c(c1)C(c1ccccc1)=NCC(=S)N2` the same measures were 5.43 and 91%.

As for `CC[C@@H]1N=C(c2ccccc2)c2cc(Cl)ccc2NC1=S`, the pEC50 in assay [1] was 6.73. Further, in assay [3], the Emax was 66%.

As to `CC(C)[C@H]1N=C(c2ccccc2F)c2cc(Cl)ccc2NC1=S`, the pEC50 in assay [1] was 6.38. In addition, in assay [3], the Emax was 119%. For `FC(F)(F)C[C@@H]1N=C(c2ccccc2)c2cc(Cl)ccc2NC1=S` the same measures were 6.51 and 74%. Regarding `S=C1CC(c2ccccc2)=Nc2cc(Cl)ccc2N1`, the pEC50 in assay [1] was under 5.00.

With `COc1ccc2c(c1)C(c1ccccc1)=N[C@@H](C(C)C)C(=S)N2`, in assay [1], the pEC50 is 6.25. Moreover, the Emax in assay [3] stood at 105%. The like results for `CCC[C@@H]1N=C(c2ccccc2)c2cc(Cl)ccc2NC1=S` were, in that order, 6.62 and 129%.

In the case of `CC(C)[C@@H]1N=C(c2ccccn2)c2cc(Cl)ccc2NC1=S`, the pEC50 in assay [1] was 6.54. Besides, the Emax in assay [3] worked out at 103%. For `SC1=Nc2ccc(Cl)cc2C(c2ccccc2)=NC1` the same measures were 6.07 to 6.74 and 82 to 92%.

On to `CC(C)=C1N=C(c2ccccc2)c2cc(Cl)ccc2NC1=S`, for which the pEC50 in assay [1] is under 5.00. `CC(C)[C@@H]1N=C(c2cccc(Cl)c2)c2cc(Cl)ccc2NC1=S`: the pEC50 in assay [1] is 6.76. In addition, the Emax in assay [3] came out at 112%. For `CC(C)[C@@H]1N=C(c2cccnc2)c2cc(Cl)ccc2NC1=S` the same measures were 6.56 and 112%. In the case of `S=C1Nc2ccc(Cl)cc2C(c2ccccc2)=NC1n1ccnc1` (racemic), in assay [1], the pEC50 is under 5.00. As to `Cc1ccc2c(c1)C(c1ccccc1)=NC(C(C)C)C(=S)N2` (stereo not drawn), in assay [1], the pEC50 was 7.21. For the same compound, in assay [3], the Emax was 129%. Take `CCC1CN(c2ccccc2)c2cc(Cl)ccc2NC1=S` (stereo not drawn): the pEC50 in assay [1] is 7.30. Moreover, in assay [3], the Emax came out at 76%. As to `CC(=O)c1ccc2c(c1)C(c1ccccc1)=NC(C)C(=S)N2` (stereo not drawn), in assay [1], the pEC50 is under 5.00. Take `O=[N+]([O-])c1ccc2c(c1)C(c1ccccc1)=NCC(=S)N2`: the pEC50 in assay [1] was 5.35. Further, the Emax in assay [3] worked out at 40%. For the compound `CC(C)[C@@H]1N=C(c2ccccc2)c2cc(-c3ccccc3)ccc2NC1=S`, the pEC50 in assay [1] was 5.83. Moreover, the maximal effect (Emax) in assay [3] was 108%. Take `Fc1ccccc1C1=NCC(=S)Nc2ccccc21`: in assay [1], the pEC50 was under 5.00. For the compound `Fc1ccccc1C1=N[C@@H](c2ccccc2)C(=S)Nc2ccc(Cl)cc21`, the pEC50 in assay [1] is 5.83. Further, the Emax in assay [3] was 75%. As for `CN1C(=S)CN=C(c2ccccc2)c2cc(Cl)ccc21` [SULAZEPAM], the pEC50 in assay [1] is under 5.00. Consider `COC(C)C1N=C(c2ccccc2)c2cc(Cl)ccc2NC1=S` (racemic), for which the negative-log EC50 (pEC50) in assay [1] was 6.45. Besides, the Emax in assay [3] stood at 98%. Take `CCC1N=C(c2ccccc2)c2cc(N)ccc2NC1=S` (stereo not drawn): in assay [1], the pEC50 was under 5.00.

Turning to `CC(C)(O)C1N=C(c2ccccc2)c2cc(Cl)ccc2NC1=S` (racemic), the pEC50 in assay [1] is 5.73. In assay [3], the Emax stood at 113%. For the compound `CSC1=Nc2ccc(Cl)cc2C(c2ccccc2)=N[C@H]1C(C)C`, the outcome in assay [4] was inactive. As for `C[C@@H]1N=C(c2ccccc2)c2cc(Cl)ccc2NC1=S`, the pEC50 in assay [1] is 6.99. In addition, the Emax in assay [3] was determined as 67%. For `CC(C)C1C(=O)N(c2ccccc2)c2cc(Cl)ccc2NC1=S` (stereo not drawn) the same measures were 6.57 and 93%. In the case of `CC(C)[C@@H]1N=C(c2ccccc2)c2cc(OC(F)(F)F)ccc2NC1=S`, the pEC50 in assay [1] was 6.63. Besides, the Emax in assay [3] came to 127%. Consider `Fc1ccccc1C1=NCc2cnnn2-c2ccc(Cl)cc21`, for which the result in assay [4] was inactive.

With `CC(=O)OC1C=C(c2ccccc2F)c2cc(Cl)ccc2NC1=S` (stereo not drawn), the pEC50 in assay [1] is 6.19. Also, the Emax in assay [3] was found to be 92%. For `Fc1ccccc1C1=N[C@H](c2ccccc2)C(=S)Nc2ccc(Cl)cc21`, in assay [1], the pEC50 was under 5.00.

As to `CCOC(=O)C1N=C(c2ccccc2)c2cc(Cl)ccc2NC1=S` (racemic), the pEC50 in assay [1] was under 5.00. For the compound `S=C1Nc2ccc(Cl)cc2C(c2ccccc2)=N[C@H]1CC1CC1`, the pEC50 in assay [1] was 6.60. Moreover, the Emax in assay [3] is 108%. For `FC(F)(F)c1ccc2c(c1)C(c1ccccc1)=NCC(=S)N2` the same measures were 6.29 and 92%.

Regarding `CC(C)[C@@H]1N=C(c2ccccc2)c2cc(Cl)ccc2NC1=O`, the figures for the pEC50 in assay [1] and in assay [2] were 6.11 and 4.24, respectively. The Emax in assay [3] worked out at 90%. For the compound `Fc1ccccc1C1=NCC(=S)Nc2ccc(Cl)cc21`, in assay [1], the pEC50 was 6.50. Further, in assay [3], the Emax was found to be 95%. The like results for `Fc1ccccc1C1=CCC(=S)Nc2ccc(Cl)cc21` were, in that order, 6.50 and 95%. For the compound `CCCC1=N[C@@H](C(C)C)C(=S)Nc2ccc(Cl)cc21`, in assay [1], the pEC50 is under 5.00. `CC(C)C1C(=S)Nc2ccc(Cl)cc2C(c2ccccc2)=[N+]1[O-]` (stereo not drawn): the pEC50 in assay [1] was 6.46. Besides, in assay [3], the Emax is 112%. For the compound `CC(C)[C@@H]1N=C(c2ccc(C(F)(F)F)cc2)c2cc(Cl)ccc2NC1=S`, the pEC50 in assay [1] was under 5.00.

As to `Fc1ccccc1C1=N[C@@H](C2CC2)C(=S)Nc2ccc(Cl)cc21`, the pEC50 in assay [1] is 6.78. Further, the Emax in assay [3] came out at 79%. `CCC[C@]1(C)N=C(c2ccccc2)c2cc(Cl)ccc2NC1=S`: the negative logarithm of the EC50 (pEC50) in assay [1] is 6.98. Still for that read-out and setting: with `CC(C)[C@@H]1N=C(N2CCCCC2)c2cc(Cl)ccc2NC1=S` the figure was under 5.00.

With `CC1N=C(c2ccccc2)c2ccccc2NC1=S` (racemic), the results for the pEC50 in assay [1] and in assay [2] were 6.26 and 7.21, respectively. Further, the Emax in assay [3] worked out at 88%.

In the case of `CC(C)[C@H]1N=C(c2ccccc2)c2cc(Cl)ccc2NC1=S`, the pEC50 was 6.28 in assay [1] and 3.57 in assay [2]. For the same compound, in assay [3], the Emax was 86%. Regarding `CC1N=C(c2ccccc2)c2cc(C#N)ccc2NC1=S` (stereo not drawn), the pEC50 in assay [1] was under 5.00. In addition, the Emax in assay [3] is 47%. As for `S=C1Cc2ccccc2-c2cc(Cl)ccc2N1`, the pEC50 in assay [1] is under 5.00.

Take `CC(C)[C@@H]1N=C(c2ccccc2)c2ccc(Cl)cc2NC1=S`: the pEC50 in assay [1] is 6.40. The Emax in assay [3] stood at 117%.

On to `Fc1ccccc1C1=NCC(=S)Nc2ccc(I)cc21`, for which the pEC50 in assay [1] was 5.67. Further, the Emax in assay [3] was 63%. For the compound `CC(C)[C@@H]1N=C(c2ccccc2)c2cc(Cl)ccc2N=C1N`, the outcome in assay [4] was inactive. In the case of `CC(C)C[C@@H]1N=C(c2ccccc2)c2cc(Cl)ccc2NC1=S`, in assay [1], the pEC50 is 6.50. Also, the Emax in assay [3] turned out to be 107%. Consider `CC(C)C[C@@H]1N=C(c2ccccc2Cl)c2cc(Cl)ccc2NC1=S`, for which the pEC50 in assay [1] was under 5.00.

As a reminder, the pEC50 is the EC50 on a negative log10 scale, so that one unit is a factor of ten. In general, Emax refers to the size of the effect at its maximum, as opposed to the concentration needed.
